Values of other authors in patent US8992947B2, “Method for predicting therapeutic effect of chemotherapy on renal cell cancer” (Taiho Pharmaceutical Co., Ltd., priority 2009, dated 2015).

Test system: renal cell carcinoma
Settings: most effective agent in summary of 83 clinical test results

Row | Compound | response rate [%]
1 | O=c1[nH]cc(F)c(=O)[nH]1 [5-fluorouracil (5-FU), 5-fluorouracil] | 13.4
2 | O=c1[nH]c(=O)n([C@H]2C[C@H](O)[C@@H](CO)O2)cc1F [floxuridine] | 13.4
